In patent US8153674B2, “Organic compounds” (Novartis AG, priority 2006, dated 2012):
pIC50: −log10 of the molar value.

Legend:
[1] = molecular target: T1, aldosterone synthase (CYP11B2) (Homo sapiens, UniProt P19099); experiment: In vitro aldosterone synthase inhibition: cellular aldosterone production in Ang II-stimulated NCI-H295R cells; format: cell-based; conditions: 1 μM Ang II, 24 hr
T1 construct: host or cells: NCI-H295R
T1 sequence (P19099 25-503): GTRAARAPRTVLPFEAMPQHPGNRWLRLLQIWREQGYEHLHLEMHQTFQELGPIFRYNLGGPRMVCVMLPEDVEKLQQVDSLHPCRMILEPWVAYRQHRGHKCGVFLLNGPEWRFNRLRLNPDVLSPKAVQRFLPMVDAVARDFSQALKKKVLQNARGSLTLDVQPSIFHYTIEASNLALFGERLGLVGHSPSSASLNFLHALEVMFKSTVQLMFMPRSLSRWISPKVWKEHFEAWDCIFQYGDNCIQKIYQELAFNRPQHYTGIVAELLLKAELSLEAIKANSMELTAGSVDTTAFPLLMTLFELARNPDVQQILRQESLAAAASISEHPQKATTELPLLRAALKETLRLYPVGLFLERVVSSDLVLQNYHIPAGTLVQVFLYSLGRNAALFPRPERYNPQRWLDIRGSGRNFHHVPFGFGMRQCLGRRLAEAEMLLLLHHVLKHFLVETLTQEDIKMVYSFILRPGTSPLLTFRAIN
Text: In particular, the aldosterone synthase inhibitory activities in vitro can be determined by the following assay.
Human adrenocortical carcinoma NCI-H295R cell line is obtained from American Type Culture Collection (Manassas, Va.). Insulin/transferrin/selenium (ITS)-A supplement (100×), DMEM/F-12, antibiotic/antimycotic (100×), and fetal calf serum (FCS) are purchased from Gibco (Grand Island, N.Y.). Anti-mouse PVT scintillation proximity assay (SPA) beads and NBS 96-well plates are obtained from Amersham (Piscataway, N.J.) and Corning (Acton, Mass.), respectively. Solid black 96-well flat bottom plates are purchased from Costar (Corning, N.Y.). Aldosterone and angiotensin (Ang II) are purchased from Sigma (St. Louis, Mo.). D-[1,2,6,7-^3H(N)]aldosterone is acquired from PerkinElmer (Boston, Mass.). Nu-serum is a product of BD Biosciences (Franklin Lakes, N.J.).
For in vitro measurement of aldosterone activity, human adrenocortical carcinoma NCI-H295R cells are seeded in NBS 96-well plates at a density of 25,000 cells/well in 100 μl of a growth medium containing DMEM/F12 supplemented with 10% FCS, 2.5% Nu-serum, 1 μg ITS/ml, and 1× antibiotic/antimycotic. The medium is changed after culturing for 3 days at 37° C. under an atmosphere of 5% CO2/95% air. On the following day, cells are rinsed with 100 μl of DMEM/F12 and incubated with 100 μl of treatment medium containing 1 μM Ang II and a compound at different concentrations in quadruplicate wells at 37° C. for 24 hr. At the end of incubation, 50 μl of medium is withdrawn from each well for measurement of aldosterone production by an RIA using mouse anti-aldosterone monoclonal antibodies.
Measurement of aldosterone activity can also be performed using a 96-well plate format. Each test sample is incubated with 0.02 μCi of D-[1,2,6,7-^3H(N)]aldosterone and 0.3 μg of anti-aldosterone antibody in phosphate-buffered saline (PBS) containing 0.1% Triton X-100, 0.1% bovine serum albumin, and 12% glycerol in a total volume of 200 μl at room temperature for 1 hr. Anti-mouse PVT SPA beads (50 μl) are then added to each well and incubated overnight at room temperature prior to counting in a Microbeta plate counter. The amount of aldosterone in each sample is calculated by comparing with a standard curve generated using known quantities of the hormone.

CYP11B1 = molecular target: T2, CYP11B1 (Homo sapiens, UniProt P15538); experiment: In vitro CYP11B1 inhibition in NCI-H295R cells (steroid release, radioimmunoassay); format: cell-based; conditions: I %: percentage of inhibition; for inhibition at 0.1 µM: NCI-H295R, 100 nM
T2 construct: Thus, the NCI-H295R cells have Cyp11 B1 (steroid 11 p-hydroxylase); host or cells: NCI-H295R
T2 sequence (P15538 25-503): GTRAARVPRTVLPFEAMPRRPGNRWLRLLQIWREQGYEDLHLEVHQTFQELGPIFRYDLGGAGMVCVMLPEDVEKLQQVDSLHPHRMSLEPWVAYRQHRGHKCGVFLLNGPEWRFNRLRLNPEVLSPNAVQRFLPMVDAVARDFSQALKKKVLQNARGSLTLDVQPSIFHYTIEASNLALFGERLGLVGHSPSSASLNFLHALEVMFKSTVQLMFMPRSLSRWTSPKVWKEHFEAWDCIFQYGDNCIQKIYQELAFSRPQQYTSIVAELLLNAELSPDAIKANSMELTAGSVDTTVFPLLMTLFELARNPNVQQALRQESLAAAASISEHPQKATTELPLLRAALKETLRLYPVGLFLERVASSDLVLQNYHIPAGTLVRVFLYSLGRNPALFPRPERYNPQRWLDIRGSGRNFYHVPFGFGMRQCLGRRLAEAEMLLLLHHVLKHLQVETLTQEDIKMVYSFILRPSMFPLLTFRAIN
Text: The in vitro inhibitory activities for CYP11B1 can be determined by the following assay.
The cell line NCI-H295R was originally isolated from an adrenocortical carcinoma and has been characterized in the literature through the stimulable secretion of steroid hormones and the presence of the enzymes essential for steroidogenesis. Thus, the NCI-H295R cells have Cyp11 B1 (steroid 11 p-hydroxylase). The cells show the physiological property of zonally undifferentiated human foetal adrenocortical cells which, however, have the capacity to produce the steroid hormones which are formed in the three, phenotypically distinguishable zones in the adult adrenal cortex. The NCI-H295R cells (American Type Culture Collection, ATCC, Rockville, Md., USA) are grown in Dulbeoco's Modified Eagle'Ham F-12 Medium (DME/F12), which has been I supplemented with Ulroser SF Serum(Soprachem, Cergy-Saint-Christophe, France), insulin, transferrin, selenite (1-T-S, Becton Dickinson Biosiences, Franklin lakes, NJ, USA) and antibiotics in 75 cm^2 cell culture vessels at 37° C. and in a 95% air-5% carbon dioxide atmosphere. The cells are subsequently transferred for colony formation into a 24-well incubation vessel. They are cultivated there in DME/F12 medium, which is now supplemented with 0.1% bovine serum instead of Ultroser SF for 24 hours. The experiment is initiated by cultivating the cells in DME/F12 medium which is supplemented with 0.1% bovine serum albumin and test compound, in the presence or absence of cell stimulants, for 72 hours. The test substance is added in a concentration range from 0.2 nanomolar to […]. Cell stimulants which can be used are angiotensin 11 ([…] or 100 nanomolar), potassium ions (16 millimolar), forskolin (10 micromolar) or a combination of two stimulants.
The excretion of aldosterone, cortisol, corticosterone and estradiol/estrone into the culture medium can be detected and quantified by commercially available, specific monoclonal antibodies in radioimmunoassays in accordance with the manufacturers instructions.
Inhibition of the release of certain steroids can be used as a measure of the respective enzyme inhibition by the added test compounds. The dose-dependent inhibition of enzymic activity by a compound is calculated by means of an inhibition plot which is characterized by an IC50.
The IC50 values for active test compounds are ascertained by a simple linear regression analysis in order to construct inhibition plots without data weighting. The inhibition plot is calculated by fitting a 4-parameter logistic function to the raw data points using the least squares method. The equation of the 4-parameter logistic function is calculated as follows: Y=(d−a)/((1+(x/c)b))+a I where: a=minimum data level b=gradient I c=ICED, d=maximum data level x=inhibitor concentration.

Compound | pIC50 [1] | CYP11B1 % I (100 nM) (CYP11B1) [%] | inhibition at 0.1 µM (CYP11B1) [%] | melting point [°C]
3-(3,3-dimethyl-1-oxo-isochroman-4-yl)-3H-imidazole-4-carbaldehyde oxime (trans) [Entry 5] | 7.33 | 97 | – | –
Cc1noc(-c2cncn2C2c3ccccc3C(=O)OC2(C)C)n1 (racemic) [Entry 4, 3,3-dimethyl-4-[5-(3-methyl-[1,2,4]oxadiazol-5-yl)imidazol-1-yl]-isochroman-1-one] | 6.73 | – | 100 | –
CCCCc1cncn1C1c2ccccc2C(=O)OC1(C)C (racemic) [Entry 6, 4-(5-butyl-imidazol-1-yl)-3,3-dimethyl-isochroman-1-one] | 8.22 | – | 100 | –
CCc1cncn1C1c2ccccc2C(=O)OC12CCOCC2 (racemic) [Entry 10, [4-(5-ethyl-imidazol-1-yl)-isochroman-1-one]-3-spiro(4-tetrahydropyran)] | 6.50 | – | 90 | –
COC(=O)c1cncn1C1c2ccccc2C(=O)N(C)C1(C)C (racemic) [Entry 11, 3-(2,3,3-trimethyl-1-oxo-1,2,3,4-tetrahydro-isoquinolin-4-yl)-3H-imidazole-4-carboxylic acid methyl ester] | 7.14 | – | 95 | –
COC(=O)c1cncn1C1c2ccccc2C(=O)N(C2CC2)C1(C)C (racemic) [Entry 12, 3-(2-cyclopropyl-3,3-dimethyl-1-oxo-1,2,3,4-tetrahydro-isoquinolin-4-yl)-3H-imidazole-4-carboxylic acid methyl ester] | 6.28 | – | 77 | –
COC(=O)c1cncn1C1c2ccccc2C(=O)OC1(C)C (single isomer, unassigned) [Entry 1, 3-(3,3-dimethyl-1-oxo-isochroman-4-yl)-3H-imidazole-4-carboxylic acid methyl ester] | 7.62 | – | 100 | –
CCOC(=O)c1cncn1C1c2ccccc2C(=O)OC1(C)C (single isomer, unassigned) [Entry 2, 3-(3,3-dimethyl-1-oxo-isochroman-4-yl)-3H-imidazole-4-carboxylic acid ethyl ester] | 8.52 | – | 94 | –
CC1(C)OC(=O)c2ccccc2C1n1cncc1C(=O)Oc1ccccc1 (single isomer, unassigned) [Entry 3, 3-(3,3-dimethyl-1-oxo-isochroman-4-yl)-3H-imidazole-4-carboxylic acid phenyl ester] | 8.52 | – | 97 | –
C=Cc1cncn1C1c2ccccc2C(=O)OC1(C)C (single isomer, unassigned) [Entry 7, 4-(5-vinyl-imidazol-1-yl)-3,3-dimethyl-isochroman-1-one] | 7.66 | – | 100 | –
CCOCc1cncn1C1c2ccccc2C(=O)OC1(C)C (single isomer, unassigned) [Entry 8, 4-(5-ethoxymethyl-imidazol-1-yl)-3,3-dimethyl-isochroman-1-one] | 7.77 | – | 100 | –
CCc1cncn1C1c2ccccc2C(=O)OC12CCC2 (single isomer, unassigned) [Entry 9, [4-(5-ethyl-imidazol-1-yl)-isochroman-1-one]-3-spirocyclobutane] | 8.15 | – | 100 | –
CCc1cncn1C1c2ccccc2C(=O)OC12CCC2 (stereo not shown) [Example 1(f), [4-(5-ethyl-imidazol-1-yl)-isochroman-1-one]-3-spirocyclobutane] | – | – | – | 178 to 179
